Experimental data taken from US20060014801A1, “Prevention and treatment of cognitive impairment using (R)-(-)-5-methyl-1-nicotynoyl-2-pyrazoline (MNP) and analogs” (The Johns Hopkins University, priority 2002, published 2006).

What was measured:
rat = test: Other behavioral measures in the rat; assay type: in vivo; conditions: 10 mg/kg/day
aged impaired (AI) rats = assay type: in vivo; conditions: 50 mg/kg/day s.c. minipump
Protocol: Spatial memory version of the Morris water maze: Behavioral testing is conducted by an experimenter who is blind to drug treatment. Fourteen 25-27 month-old Long-Evans rats, previously characterized as cognitively impaired (AI rats), were tested in a modified version of the Morris water maze (MWM) task using the same MWM apparatus as described above. Unlike the traditional protocol wherein the platform location remained constant throughout training, the escape platform location in this spatial memory version of the task varied from day-to-day (in one of nine different positions).
AI rats were given six training trials per day with a 60-sec intertrial interval. On each training trial, the rat was released in the maze from one of four equally spaced starting positions around the perimeter of the pool. […] Following the six training trials, the rat is returned to its home cage and placed in the animal housing room. After a delay of four hours, the rat is given one additional testing trial (the “retention trial”) with the escape platform located in the same position as in the 6 training trials. The length of the rat's swim path to reach the escape platform is measured in all six training trials and the retention trial. Spatial memory in this task is measured by comparing the swim path lengths in the retention trial with the sixth (and final) training trial. […] A greater difference in performance in these two trials represents a greater degree of forgetting. After two days of acclimation to these procedures, this test protocol is given for nine consecutive days, with the position of the escape platform moved daily.
MNP enhances the cognitive performance of aged rats in the spatial memory version of the MWM: Following characterization for cognitive status with a traditional MWM protocol, impaired aged rats were assigned to one of two treatment conditions (vehicle controls or MNP). […] AI rats were pretreated with either vehicle or MNP for 9 days prior to behavioral testing. Osmotic minipumps (Alzet) were filled with either vehicle (0.9% saline) or MNP (50 mg/kg/day) and implanted subcutaneously. Initially, Alzet pumps that administer compound for one week were implanted; after seven days, these pumps (now empty) were removed and replaced with full two-week pumps allowing delivery of either MNP or saline for a total of 21 days. On Day 9 of treatment with either vehicle or MNP, MWM testing was begun. Data were collected in two replications with vehicle- and drug-treated rats represented in each. A total of 9 vehicle-treated and 5 MNP-treated rats completed the entire protocol. Several rats in both treatment groups, however, died during the execution of the study. […]

C[C@@H]1CC=NN1C(=O)c1cccnc1 [MNP, (R)-(−)-5-methyl-1-nicotinoyl-2-pyrazoline]
Efficacy in other behavioral measures in the rat (rat): efficacious | Difference in performance between final training trial and retention trial (aged impaired (AI) rats; 4-hour delay): no significant difference in performance | Performance in retention trials vs vehicle-treated controls (aged impaired (AI) rats; 4-hour delay, Days 9-11 of treatment): performed significantly better | Savings scores (memory for the platform location) vs vehicle-treated controls (aged impaired (AI) rats; Mann Whitney U test p<0.05): significantly better than vehicle-treated controls | Performance on training trials 1-6 vs vehicle group (aged impaired (AI) rats; two-way analysis of variance): no significant difference between the groups
